In the experiment the target is T1, Recombinant human H-PGDS (Homo sapiens, UniProt O60760).
T1 construct: made in house; host or cells: E. coli
As to the kind of experiment: H-PGDS inhibitory activity (prostaglandin D2 production from prostaglandin H2, measured by LC-MS/MS). It counts as biochemical. The following applies: recombinant human H-PGDS 1.0 nM expressed in E. coli; prostaglandin H2 25 μM; preincubated 15 minutes on ice, reacted on ice for 1 minute; concentration that inhibits prostaglandin D2 production by 50%. The procedure, abridged:
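Recombinant human H-PGDS (E. coli-expressed, 1.0 nM final) preincubated with compound 15 min on ice in 20 mM Tris-HCl pH 8.0, 2 mM MgCl2, 2 mM GSH, 0.5 mg/mL γ-globulin. Reaction with 25 µM PGH2 run 1 min on ice, stopped with FeCl2/citric acid, PGD2 quantified by LC-MS/MS. Activity expressed as % of DMSO control after subtracting non-enzymatic PGD2.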

T1 sequence (O60760 whole entry): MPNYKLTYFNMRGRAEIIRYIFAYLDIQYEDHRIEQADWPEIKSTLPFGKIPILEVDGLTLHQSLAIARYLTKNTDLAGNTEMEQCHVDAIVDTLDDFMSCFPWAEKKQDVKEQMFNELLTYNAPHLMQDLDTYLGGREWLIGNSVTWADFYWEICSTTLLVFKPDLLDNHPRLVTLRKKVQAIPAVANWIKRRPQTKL

One may read the IC50 as the concentration at which inhibition is half-maximal. As to `CO[C@@H]1CN(c2ncc(CO)cn2)C[C@H]1NC(=O)c1ccc(-c2nccc3occc23)cc1` [Example 205, 4-(furo[3,2-c]pyridin-4-yl)-N-((3R,4R)-1-[5-(hydroxymethyl)pyrimidin-2-yl]-4-methoxypyrrolidin-3-yl)benzamide], the IC50 turned out to be 5.6 nM.

`CO[C@H]1CN(c2ncc(CO)cn2)C[C@H]1NC(=O)c1ccc(-c2nccc3occc23)cc1` [Example 206, 4-(furo[3,2-c]pyridin-4-yl)-N-((3R,4S)-1-[5-(hydroxymethyl)pyrimidin-2-yl]-4-methoxypyrrolidin-3-yl)benzamide]: the IC50 stood at 39 nM.

As for `O=C(N[C@@H]1CN(c2ncc(CO)cn2)C[C@H]1O)c1ccc(-c2nccc3occc23)cc1` [Example 207, 4-(furo[3,2-c]pyridin-4-yl)-N-((3R,4R)-4-hydroxy-1-[5-(hydroxymethyl)pyrimidin-2-yl]pyrrolidin-3-yl)benzamide], the IC50 worked out at 6.7 nM.

Consider `O=C(N[C@@H]1CN(c2ncc(CO)cn2)C[C@@H]1O)c1ccc(-c2nccc3occc23)cc1` [Example 208, 4-(furo[3,2-c]pyridin-4-yl)-N-((3R,4S)-4-hydroxy-1-[5-(hydroxymethyl)pyrimidin-2-yl]pyrrolidin-3-yl)benzamide], for which the concentration for half-maximal inhibition (IC50) was 14 nM.

For the compound `O=C(NC1CC2(CNC2)C1)c1ccc(-c2nccc3occc23)cc1` [Example 209, 4-(furo[3,2-c]pyridin-4-yl)-N-(2-azaspiro[3.3]heptan-6-yl)benzamide], the concentration for half-maximal inhibition (IC50) amounted to 39 nM.

For the compound `O=C(NC1CC2(C1)CN(c1ncccn1)C2)c1ccc(-c2nccc3occc23)cc1` [Example 210, 4-(furo[3,2-c]pyridin-4-yl)-N-[2-(pyrimidin-2-yl)-2-azaspiro[3.3]heptan-6-yl]benzamide], the IC50 came to 3.5 nM.

With `O=C(N[C@@H]1CC[C@@H](CO)OC1)c1ccc(-c2nccc3occc23)cc1` [Example 211, 4-(furo[3,2-c]pyridin-4-yl)-N-[(3R,6S)-6-(hydroxymethyl)tetrahydro-2 H-pyran-3-yl]benzamide], the IC50 worked out at 2.5 nM.

Regarding `CC(O)[C@@H]1CC[C@@H](NC(=O)c2ccc(-c3nccc4occc34)cc2)CO1` (stereo partly drawn) [Example 212, 4-(furo[3,2-c]pyridin-4-yl)-N-[(3R,6S)-6-(1-hydroxyethyl)tetrahydro-2 H-pyran-3-yl]benzamide], the 50% inhibitory concentration (IC50) was 3.8 nM.

In the case of `CC(=O)[C@@H]1CC[C@@H](NC(=O)c2ccc(-c3nccc4occc34)cc2)CO1` [Example 213, N-[(3R,6S)-6-acetyltetrahydro-2 H-pyran-3-yl]-4-(furo[3,2-c]pyridin-4-yl)benzamide], the IC50 turned out to be 4.3 nM.

Consider `CC(C)(O)[C@@H]1CC[C@@H](NC(=O)c2ccc(-c3nccc4occc34)cc2)CO1` [Example 214, 4-(furo[3,2-c]pyridin-4-yl)-N-[(3R,6S)-6-(2-hydroxypropan-2-yl)tetrahydro-2 H-pyran-3-yl]benzamide], for which the IC50 came to 3.4 nM.

`O=C(NC1CN(c2ncccn2)C1)c1ccc(-c2nccc3occc23)cc1` [Example 217, 4-(furo[3,2-c]pyridin-4-yl)-N-[1-(pyrimidin-2-yl)azetidin-3-yl]benzamide]: the IC50 amounted to 2.4 nM.

Consider `O=C(NC[C@H]1C[C@H](O)C1)c1ccc(-c2nccc3occc23)cc1` [Example 218, 4-(furo[3,2-c]pyridin-4-yl)-N-[(trans-3-hydroxycyclobutyl)methyl]benzamide], for which the 50% inhibitory concentration (IC50) is 21 nM.

With `O=C(NC[C@H]1C[C@@H](O)C1)c1ccc(-c2nccc3occc23)cc1` [Example 219, 4-(furo[3,2-c]pyridin-4-yl)-N-[(cis-3-hydroxycyclobutyl)methyl]benzamide], the concentration for half-maximal inhibition (IC50) worked out at 12 nM.

Consider `O=C(NC(CO)c1ccccn1)c1ccc(-c2nccc3occc23)cc1` (stereo not drawn) [Example 220, 4-(furo[3,2-c]pyridin-4-yl)-N-[2-hydroxy-1-(pyridin-2-yl)ethyl]benzamide], for which the half-inhibitory concentration (IC50) was 68 nM.

Take `O=C(NCC1COc2ccccc2C1)c1ccc(-c2nccc3occc23)cc1` (stereo not drawn) [Example 221, N-(chroman-3-ylmethyl)-4-(furo[3,2-c]pyridin-4-yl)benzamide]: the IC50 was 4.9 nM.

For `O=C(Nc1ccc(N2CCC(C(=O)N3CCOCC3)CC2)cc1)c1ccc(-c2nccc3occc23)cc1` [Example 222, 4-(furo[3,2-c]pyridin-4-yl)-N-(4-[4-(morpholine-4-carbonyl)piperidin-1-yl]phenyl)benzamide], the half-maximal inhibitory concentration (IC50) was determined as 2.3 nM.

Consider `O=C(Nc1ccc(N2CCC(C(=O)N3CCOCC3)CC2)c(F)c1)c1ccc(-c2nccc3occc23)cc1` [Example 223, N-{3-fluoro-4-[4-(morpholine-4-carbonyl)piperidin-1-yl]phenyl}-4-(furo[3,2-c]pyridin-4-yl)benzamide], for which the 50% inhibitory concentration (IC50) stood at 5.3 nM.

For the compound `O=C(N[C@@H]1COCCN(c2ncccn2)C1)c1ccc(-c2nccc3occc23)cc1` [Example 224, (S)-4-(furo[3,2-c]pyridin-4-yl)-N-[4-(pyrimidin-2-yl)-1,4-oxazepan-6-yl]benzamide], the IC50 worked out at 1.8 nM.

Regarding `O=C(N[C@H]1COCCN(c2ncccn2)C1)c1ccc(-c2nccc3occc23)cc1` [Example 225, (R)-4-(furo[3,2-c]pyridin-4-yl)-N-[4-(pyrimidin-2-yl)-1,4-oxazepan-6-yl]benzamide], the IC50 was 6.5 nM.

On to `O=C(N[C@H]1CCN(c2cccc(F)n2)C1)c1ccc(-c2nccc3occc23)cc1` [Example 226, (S)—N-[1-(6-fluoropyridin-2-yl)pyrrolidin-3-yl]-4-(furo[3,2-c]pyridin-4-yl)benzamide], for which the half-inhibitory concentration (IC50) came out at 2.8 nM.

Regarding `O=C(N[C@H]1CCN(c2cc(Cl)ncn2)C1)c1ccc(-c2nccc3occc23)cc1` [Example 227, (S)—N-[1-(6-chloropyrimidin-4-yl)pyrrolidin-3-yl]-4-(furo[3,2-c]pyridin-4-yl)benzamide], the 50% inhibitory concentration (IC50) turned out to be 1.4 nM.

On to `O=C(N[C@H]1CCN(c2ccc(Cl)nn2)C1)c1ccc(-c2nccc3occc23)cc1` [Example 228, (S)—N-[1-(6-chloropyridazin-3-yl)pyrrolidin-3-yl]-4-(furo[3,2-c]pyridin-4-yl)benzamide], for which the half-maximal inhibitory concentration (IC50) was determined as 1.9 nM.

For the compound `O=C(N[C@H]1CCN(c2ccncn2)C1)c1ccc(-c2nccc3occc23)cc1` [Example 229, (S)-4-(furo[3,2-c]pyridin-4-yl)-N-[1-(pyrimidin-4-yl)pyrrolidin-3-yl]benzamide], the half-maximal inhibitory concentration (IC50) amounted to 1.5 nM.

On to `O=C(N[C@H]1CCN(c2cccnn2)C1)c1ccc(-c2nccc3occc23)cc1` [Example 230, (S)-4-(furo[3,2-c]pyridin-4-yl)-N-[1-(pyridazin-3-yl)pyrrolidin-3-yl]benzamide], for which the IC50 turned out to be 1.2 nM.

Take `Cn1nnnc1N1CC[C@H](NC(=O)c2ccc(-c3nccc4occc34)cc2)C1` [Example 231, (S)-4-(furo[3,2-c]pyridin-4-yl)-N-[1-(1-methyl-1H-tetrazol-5-yl)pyrrolidin-3-yl]benzamide]: the IC50 amounted to 3.2 nM.

On to `CCn1nnnc1N1CC[C@H](NC(=O)c2ccc(-c3nccc4occc34)cc2)C1` [Example 232, (S)-4-(furo[3,2-c]pyridin-4-yl)-N-[1-(1-ethyl-1H-tetrazol-5-yl)pyrrolidin-3-yl]benzamide], for which the half-inhibitory concentration (IC50) came out at 2 nM.

As to `O=C(N[C@H]1CCN(c2cccc(=O)[nH]2)C1)c1ccc(-c2nccc3occc23)cc1` [Example 233, (S)-4-(furo[3,2-c]pyridin-4-yl)-N-[1-(6-oxo-1,6-dihydropyridin-2-yl)pyrrolidin-3-yl]benzamide], the IC50 is 7.5 nM.

As to `CCC(=O)N1CCC(NC(=O)c2ccc(-c3nccc4occc34)cc2)CC1` [Example 234, 4-(furo[3,2-c]pyridin-4-yl)-N-(1-propionylpiperidin-4-yl)benzamide], the concentration for half-maximal inhibition (IC50) amounted to 1.6 nM.

For `O=C(NC1CCN(C(=O)C2CC2)CC1)c1ccc(-c2nccc3occc23)cc1` [Example 235, N-[1-(cyclopropanecarbonyl)piperidin-4-yl]-4-(furo[3,2-c]pyridin-4-yl)benzamide], the IC50 came to 1.2 nM.

With `O=C(NC1CCN(C2COC2)CC1)c1ccc(-c2nccc3occc23)cc1` [Example 236, 4-(furo[3,2-c]pyridin-4-yl)-N-[1-(oxetan-3-yl)piperidin-4-yl]benzamide], the IC50 came out at 1.1 nM.

`O=C(NC1CCN(c2nncs2)CC1)c1ccc(-c2nccc3occc23)cc1` [Example 237, N-[1-(1,3,4-thiadiazol-2-yl)piperidin-4-yl]-4-(furo[3,2-c]pyridin-4-yl)benzamide]: the IC50 is 1.2 nM.

As to `O=C(NC1CCN(c2cccc3nccn23)CC1)c1ccc(-c2nccc3occc23)cc1` [Example 238, 4-(furo[3,2-c]pyridin-4-yl)-N-[1-(imidazo[1,2-a]pyridin-5-yl)piperidin-4-yl]benzamide], the half-maximal inhibitory concentration (IC50) stood at 3.6 nM.

As for `CCn1nnnc1N1CCC(NC(=O)c2ccc(-c3nccc4occc34)cc2)CC1` [Example 239, N-[1-(1-ethyl-1H-tetrazol-5-yl)piperidin-4-yl]-4-(furo[3,2-c]pyridin-4-yl)benzamide], the half-maximal inhibitory concentration (IC50) was found to be 1.2 nM.

Consider `CCCn1nnnc1N1CCC(NC(=O)c2ccc(-c3nccc4occc34)cc2)CC1` [Example 240, 4-(furo[3,2-c]pyridin-4-yl)-N-[1-(1-propyl-1H-tetrazol-5-yl)piperidin-4-yl]benzamide], for which the concentration for half-maximal inhibition (IC50) came out at 1.6 nM.

Regarding `CCCCn1nnnc1N1CCC(NC(=O)c2ccc(-c3nccc4occc34)cc2)CC1` [Example 241, N-[1-(1-butyl-1H-tetrazol-5-yl)piperidin-4-yl]-4-(furo[3,2-c]pyridin-4-yl)benzamide], the 50% inhibitory concentration (IC50) came out at 2.7 nM.

In the case of `CC(C)n1nnnc1N1CCC(NC(=O)c2ccc(-c3nccc4occc34)cc2)CC1` [Example 242, 4-(furo[3,2-c]pyridin-4-yl)-N-[1-(1-isopropyl-1H-tetrazol-5-yl)piperidin-4-yl]benzamide], the IC50 came out at 2 nM.

The record behind these values is patent US20230339937A1, “CONDENSED RING COMPOUNDS THAT INHIBIT H-PGDS” (SATO PHARMACEUTICAL CO., LTD., priority 2020, published 2023).
